Several values for one entry are separate records, joined by “and”; a condition that tells them apart may be missing. Equal values may be shown once. Entries after “also recorded” stand apart in the source; their conditions may differ.

From PMC3391414 (Journal of Agricultural and Food Chemistry, 2011) come the findings set out here.

Data set [1] addresses T1, UGT1A1 (Homo sapiens, UniProt P22309).
T1 sequence (P22309 26-533): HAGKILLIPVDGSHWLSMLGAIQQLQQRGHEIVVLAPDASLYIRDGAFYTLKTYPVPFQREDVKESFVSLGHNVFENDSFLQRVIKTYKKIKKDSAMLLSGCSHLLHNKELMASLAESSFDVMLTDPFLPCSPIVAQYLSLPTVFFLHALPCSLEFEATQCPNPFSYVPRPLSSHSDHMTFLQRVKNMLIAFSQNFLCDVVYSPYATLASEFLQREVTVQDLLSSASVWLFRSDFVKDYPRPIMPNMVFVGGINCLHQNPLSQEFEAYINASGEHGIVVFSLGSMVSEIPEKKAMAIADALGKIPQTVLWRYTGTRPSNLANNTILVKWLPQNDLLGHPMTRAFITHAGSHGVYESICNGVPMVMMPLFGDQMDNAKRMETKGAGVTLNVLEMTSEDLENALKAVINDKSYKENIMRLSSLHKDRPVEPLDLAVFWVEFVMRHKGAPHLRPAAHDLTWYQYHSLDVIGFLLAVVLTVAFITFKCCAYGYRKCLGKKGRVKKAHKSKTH
Description: Glucuronidation by recombinant human UGT1A1.

Data set [2] deals with T2, UGT1A3 (Homo sapiens, UniProt P35503).
T2 sequence (P35503 29-534): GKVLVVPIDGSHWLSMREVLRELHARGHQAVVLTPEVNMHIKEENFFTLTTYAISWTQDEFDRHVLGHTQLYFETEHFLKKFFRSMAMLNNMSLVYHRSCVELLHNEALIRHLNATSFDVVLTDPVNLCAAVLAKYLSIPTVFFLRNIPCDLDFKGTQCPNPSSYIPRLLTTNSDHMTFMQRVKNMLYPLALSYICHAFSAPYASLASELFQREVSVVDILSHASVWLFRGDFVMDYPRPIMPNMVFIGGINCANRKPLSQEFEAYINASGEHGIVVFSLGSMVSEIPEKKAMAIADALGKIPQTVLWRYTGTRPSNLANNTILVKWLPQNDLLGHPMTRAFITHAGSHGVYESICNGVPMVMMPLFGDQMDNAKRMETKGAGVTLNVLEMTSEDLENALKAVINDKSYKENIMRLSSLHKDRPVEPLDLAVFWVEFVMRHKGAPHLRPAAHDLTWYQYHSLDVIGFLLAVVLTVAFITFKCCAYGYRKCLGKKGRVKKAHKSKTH
As to the kind of experiment: Glucuronidation by recombinant human UGT1A3.

The target of data set [3] is T3, UGT1A8 (Homo sapiens, UniProt Q9HAW9).
T3 sequence (Q9HAW9 26-530): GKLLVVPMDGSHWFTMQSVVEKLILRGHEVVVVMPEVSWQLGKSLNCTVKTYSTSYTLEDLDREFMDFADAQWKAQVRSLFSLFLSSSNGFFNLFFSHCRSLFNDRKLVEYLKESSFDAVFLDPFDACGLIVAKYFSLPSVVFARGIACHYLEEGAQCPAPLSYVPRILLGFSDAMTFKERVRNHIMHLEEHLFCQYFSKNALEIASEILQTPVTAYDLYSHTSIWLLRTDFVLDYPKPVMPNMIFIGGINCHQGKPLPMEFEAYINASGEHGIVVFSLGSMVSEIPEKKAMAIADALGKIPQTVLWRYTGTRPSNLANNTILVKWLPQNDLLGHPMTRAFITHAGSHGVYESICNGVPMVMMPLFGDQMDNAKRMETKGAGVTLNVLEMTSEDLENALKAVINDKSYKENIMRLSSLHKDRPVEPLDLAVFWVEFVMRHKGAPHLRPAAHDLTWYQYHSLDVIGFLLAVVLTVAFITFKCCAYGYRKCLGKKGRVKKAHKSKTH
Description: Glucuronidation by recombinant human UGT1A8.

In data set [4] the target is T4, UGT1A9 (Homo sapiens, UniProt O60656).
T4 sequence (O60656 26-530): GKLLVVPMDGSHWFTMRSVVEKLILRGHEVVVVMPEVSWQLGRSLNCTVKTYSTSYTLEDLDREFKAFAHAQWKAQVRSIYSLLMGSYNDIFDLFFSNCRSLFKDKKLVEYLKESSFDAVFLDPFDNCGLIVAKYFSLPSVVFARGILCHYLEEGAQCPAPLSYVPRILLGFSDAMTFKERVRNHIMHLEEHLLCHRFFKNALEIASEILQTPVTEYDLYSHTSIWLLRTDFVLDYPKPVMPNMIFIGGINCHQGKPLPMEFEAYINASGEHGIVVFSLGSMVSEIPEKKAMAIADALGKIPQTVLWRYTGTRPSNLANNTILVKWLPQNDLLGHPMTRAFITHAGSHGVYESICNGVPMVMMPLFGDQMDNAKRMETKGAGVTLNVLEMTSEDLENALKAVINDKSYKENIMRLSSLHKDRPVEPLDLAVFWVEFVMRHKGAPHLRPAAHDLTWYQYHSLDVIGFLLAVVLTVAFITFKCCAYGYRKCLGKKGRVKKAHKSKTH
Description: Glucuronidation by recombinant human UGT1A9.

The target of data set [5] is T5, UGT1A6 (Homo sapiens, UniProt P19224).
T5 sequence (P19224 27-532): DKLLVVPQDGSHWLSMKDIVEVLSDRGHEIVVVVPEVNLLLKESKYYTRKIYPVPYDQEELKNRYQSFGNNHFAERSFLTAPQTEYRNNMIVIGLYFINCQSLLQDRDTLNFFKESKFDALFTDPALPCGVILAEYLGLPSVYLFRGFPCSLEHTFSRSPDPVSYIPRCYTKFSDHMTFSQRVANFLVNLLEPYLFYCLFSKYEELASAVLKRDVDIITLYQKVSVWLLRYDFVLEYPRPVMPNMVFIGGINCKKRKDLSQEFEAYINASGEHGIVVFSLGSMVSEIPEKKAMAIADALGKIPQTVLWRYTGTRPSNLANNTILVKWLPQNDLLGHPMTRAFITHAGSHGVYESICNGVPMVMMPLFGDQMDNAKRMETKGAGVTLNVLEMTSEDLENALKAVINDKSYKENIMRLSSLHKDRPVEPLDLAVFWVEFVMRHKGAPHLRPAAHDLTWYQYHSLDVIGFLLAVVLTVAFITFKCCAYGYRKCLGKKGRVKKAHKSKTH
To be noted: 10 μM, pH 7.4.

In the case of `O=c1c(O)c(-c2ccc(O)cc2)oc2cc(O)cc(O)c12` [5,7,4'THFnol, 3,5,7,4’-tetrahydroxyflavone], the “Degree of regiospecificity (major glucuronide in bracket)” value in data set [1] (UGT1A1, substrate 2.5 μM) was “Weak (7-O)”; in data set [1] (UGT1A1, substrate 2.5 μM, listed as 5,7,4’THFnol), “weakly preferred the glucuronidation of 7-O position”; in data set [1] (UGT1A1, substrate 10 μM), “No (3-O, 7-O)”; in data set [1] (UGT1A1, substrate 10 μM, listed as 5,7,4’THFnol), “no regiospecific preference between 3-O and 7-O; also recorded: no regiospecificity”; in data set [2] (UGT1A3, substrate 2.5 μM), “No (3-O, 7-O)”; in data set [2] (UGT1A3, substrate 10 μM), “No (3-O, 7-O)”. Besides, the “Degree of regiospecificity (major glucuronide in bracket)” value was “no regiospecific preference between 3-O and 7-O; also recorded: did not show dominant regiospecificity for 7-O position” in data set [2] (UGT1A3, substrate 10 μM, listed as 5,7,4’THFnol); “Moderate (3-O)” in data set [4] (UGT1A9, substrate 2.5 μM); “moderate regiospecificity for glucuronidation of 3-O position” in data set [4] (UGT1A9, substrate 2.5 μM, listed as 5,7,4’THFnol); “Weak (3-O)” in data set [4] (UGT1A9, substrate 10 μM); “only weakly preferred 3-O position; also recorded: weak regiospecificity for glucuronidation of 3-O position” in data set [4] (UGT1A9, substrate 10 μM, listed as 5,7,4’THFnol). Moreover, the Hydroxyl positions glucuronidated result in data set [1] (UGT1A1, substrate 10 μM) was “glucuronidated 3-O, 7-O and 4’-O”; in data set [2] (UGT1A3, substrate 10 μM) it was “glucuronidated 3-O, 7-O and 4’-O”; in data set [3] (UGT1A8, substrate 10 μM) it was “glucuronidated 3-O, 7-O and 4’-O”; in data set [4] (UGT1A9, substrate 10 μM) it was “glucuronidated only 3-O and 7-O positions”. Moreover, the “Degree of regiospecificity (3-O vs 7-O)” value was “no regiospecificity” in data set [1] (UGT1A1, substrate 35 μM); “weak regiospecificity and 7-O was the preferred position” in data set [3] (UGT1A8, substrate 35 μM); “no regiospecificity” in data set [4] (UGT1A9, substrate 35 μM).

Regarding `O=c1cc(-c2ccccc2)oc2cc(O)cc(O)c12` [5,7DHF, 5,7-dihydroxyflavone], in data set [5], the Hydroxyl positions glucuronidated result was “glucuronidated both 7-O and 5-O positions”.
